What was measured:
[1] = Protolysis constant at an ionic strength of 0.1 M.; assay type: ADME
[2] = target: Glutamate receptor ionotropic, AMPA (Rattus norvegicus, UniProt P19490+P19491+P19492+P19493); assay: Inhibition of specific binding of [3H]AMPA to Ionotropic glutamate receptor AMPA in rat brain membranes; assay type: cell membranes
Rattus norvegicus [3] = species on record: Rattus norvegicus; assay: In vitro stimulation of norepinephrine release from hippocampal nerve endings.; assay type: functional; conditions: Hippocampus
Rattus norvegicus [4] = species on record: Rattus norvegicus; assay: Inhibition of stimulation of NE release by 100 uM of AMPA; assay type: functional

`Cc1cc([N+](=O)[O-])ccc1O` gave a pKa [1] of 7.2.

Molecule `NC(Cc1ccccc1O)C(=O)O` (centres undefined) has a pKa [1] of 8.67.

Molecule `NC(Cc1ccc([N+](=O)[O-])c(O)c1[N+](=O)[O-])C(=O)O` (centres undefined) has a pKa [1] of 3.2, an IC50 [2] of 4.9 µM and an EC50 (Rattus norvegicus [3]) of 74 µM.

For `NC(Cc1ccc([N+](=O)[O-])c(O)c1)C(=O)O` (centres undefined), the pKa [1] was 6.6.

Work on `NC(Cc1cccc([N+](=O)[O-])c1O)C(=O)O` (centres undefined) yielded a pKa [1] of 6.6.

`Cc1cccc([N+](=O)[O-])c1O` gave a pKa [1] of 7.7.

In the case of `NC(Cc1cc([N+](=O)[O-])ccc1O)C(=O)O` (centres undefined), the pKa [1] is reported as 6.4.

In the case of `N[C@@H](Cc1cc([N+](=O)[O-])c(O)c([N+](=O)[O-])c1)C(=O)O`, the pKa [1] is reported as 3.2.

`NC(Cc1cc(O)c([N+](=O)[O-])cc1[N+](=O)[O-])C(=O)O` (centres undefined) gave a pKa [1] of 3.8.

Molecule `NC(Cc1ccc(O)c([N+](=O)[O-])c1)C(=O)O` (centres undefined) has a pKa [1] of 6.8.

Work on `NC(Cc1c([N+](=O)[O-])ccc(O)c1[N+](=O)[O-])C(=O)O` (centres undefined) yielded a pKa [1] of 3.6.

With `NC(Cc1cc(O)ccc1[N+](=O)[O-])C(=O)O` (centres undefined) the pKa [1] was 6.8.

Molecule `NC(Cn1cc([N+](=O)[O-])c(=O)[nH]c1=O)C(=O)O` (centres undefined) has a pKa [1] of 6.4 and an EC50 (Rattus norvegicus [3]) of 15 µM.

`NC(Cc1cc([N+](=O)[O-])cc([N+](=O)[O-])c1O)C(=O)O` (centres undefined) gave a pKa [1] of 6.4, an IC50 [2] of 25 µM and an IC50 (Rattus norvegicus [4]) of 730 µM.

In the case of `O=C(O)C(O)Cc1cc([N+](=O)[O-])cc([N+](=O)[O-])c1O` (centres undefined), the pKa [1] is reported as 4.2.

Molecule `NC(Cn1ccc(=O)[nH]c1=O)C(=O)O` (racemic) has a pKa [1] of 9.3.

Work on `Cc1onc(O)c1C[C@H](N)C(=O)O` [(S)-AMPA] yielded an EC50 (Rattus norvegicus [3]) of 6.7 µM.

`O=[N+]([O-])c1cc2nc(O)c(O)nc2cc1[N+](=O)[O-]` [DNQX] showed an IC50 (Rattus norvegicus [4]) of 41 µM.

In the case of `C=C(C)[C@H]1CN[C@H](C(=O)O)[C@H]1CC(=O)O` [KAINIC ACID], the EC50 (Rattus norvegicus [3]) is reported as 3.7 µM.

— ChEMBL document CHEMBL1130171, “Structure--activity studies for alpha-amino-3-hydroxy-5-methyl-4-isoxazolepropanoic acid receptors: acidic hydroxyphenylalanines” (J Med Chem, 1997)
